Source: patent US20220267269A1, “COMPOUNDS FOR THE MODULATION OF PROPROTEIN CONVERTASE SUBTILISIN/KEXIN TYPE 9 (PCSK9)” (SRX Cardio, LLC, priority 2019, published 2022)
pEC50: −log10 of the molar value.

Columns and labels:
PCSK9 [1] = biological target: T1, PCSK9 (Homo sapiens, UniProt Q8NBP7); assay: LDLR flow cytometric analysis (LDLR recovery in cells treated with recombinant PCSK9); format: cell-based
T1 construct: purchased Cayman Chemical 20631
Protocol: LDLR levels were measured using flow cytometry or fluorescence activated cell sorting (FACS) using protocols adapted from Benjannet et al., “Effects of the prosegment and pH on the activity of PCSK9: evidence for additional processing events” J Biol Chem. 285(52): 40965-40978 (2010) and “Composition and Methods of Use of Small Molecules as Binding Ligands for the Modulation of Proprotein Convertase Subtilisin/Kexin Type 9 (PCSK9) Protein Activity” (WO2016029037), which are incorporated by reference in their entirety.
Cells, such as HepG2, HuH7, FL83B, or a cell line transfected with a short-hairpin PCSK9 knockdown sequence such as HepG2/shPCSK9, HuH7/shPCSK9, or FL83B/shPCSK9 were cultured in media composed of complete, high glucose DMEM (Invitrogen) with 10% fetal bovine serum (Life Technologies), supplemented with penicillin-streptomycin (Life Technologies). Cells were plated in a 24-well plate, at 125 k cells/well, and cultured at 37° C. for 12-24 h. Culture media was removed and replaced with fresh culture media or culture media plus a predetermined amount of recombinant PCSK9 (for example, a final PCSK9 concentration of 5 μg/mL; Cayman Chemical, Ann Arbor, Mich., Catalog #20631). Wells evaluating test compounds were dosed with concentrations ranging from 0 nM to 100 μM.
Following an incubation period of 4-6 hours at 37° C., the media was removed and the cells rinsed by adding 0.5 ml of complete D-PBS (i.e., Dulbecco's phosphate buffered saline (D-PBS, Life Technologies) supplemented with 0.5% bovine serum albumin (BSA, Sigma) and 1 g/L glucose (Sigma)). The wash media was carefully aspirated, and cells released from the plate using 200 μL of TrypLE Express (Life Technologies) by incubating for 5-10 minutes at 37° C. The TrypLE-Cell suspension was inactivated by adding 100 μL of Fetal Bovine Serum, transferred to a v-bottom plate, and centrifuged at 250×gravity for 5 minutes. Following centrifugation, the supernatant was aspirated and the cell pellet is resuspended in 100 μL of complete D-PBS, and centrifuged at 250×gravity for 5 minutes. Following centrifugation, the supernatant was aspirated and the cell pellet was resuspended in 100 μL of antibody staining solution (600 μL of anti-LDLr-PE in complete D-PBS) and incubated on ice, protected from light, for 30 minutes. The cells were then pelleted by centrifugation, resuspended in 100 μL of 4′,6-Diamidino-2-phenylindole (DAPI, Cayman Chemical) or 7-aminoactinomycin D (7AAD, Life Technologies) staining solution to measure cell viability.
(§1) Cells were analyzed for both cell viability marker (dead cells) and LDLR in live cells using a flow cytometer per the manufacturer's operating manual. Cells incubated with small molecule compounds that are inhibitors of PCSK9 will be expected to show increased amounts of LDLR, relative to control (no compound) specimens, and cells incubated with small molecule compounds that are activators of PCSK9 will be expected to show decreased amounts of LDLR relative to control (no compound) specimens.
The percentage recovery in the LDLR assay at 10 μM concentration is provided as follows: +++: >80% recovery; ++: 40-80% recovery; +: 0-40% recovery.
The LDL-R EC50 is provided as follows: +++: <1; ++: 1 μM-5 μM; +: >5 μM.

PCSK9 [2] = biological target: T1, PCSK9; assay: Fluorescent-LDL uptake analysis by flow cytometric analysis; format: cell-based
Protocol: Cells, such as HuH7, FL83B, or a cell line transfected with a short-hairpin PCSK9 knockdown sequence such as HuH7/shPCSK9 or FL83B/shPCSK9 were plated and cultured at 37° C. for 12-24 h. Culture media was removed and replaced with fresh lipoprotein-depleted culture media supplemented with 5 μg/mL of fluorescently labeled LDL or lipoprotein-depleted culture media supplemented with 5 μg/mL of fluorescently labeled LDL plus a concentration of recombinant PCSK9 (for example 5 μg/mL recombinant PCSK9; Cayman Chemical, Cat. #20631). Examples of fluorescently labeled LDL include: DiI-LDL (Kalen Biomedical), or LDL conjugated to Dylight (e.g., LDL-Dylight 488, or LDL-Dylight 550 (Cayman Chemical, Cat. #10011229)). Lipoprotein-depleted culture media was composed of DMEM (Invitrogen) with 10% lipoprotein-depleted fetal bovine serum (Kalen Biomedical) and supplemented with penicillin-streptomycin (Life Technologies). Cells were dosed with small molecule test compounds at doses ranging from 0 nM to 100 μM, following a protocol adapted from Benjannet et al., “Effects of the prosegment and pH on the activity of PCSK9: evidence for additional processing events” J Biol Chem. 285(52):40965-40978 (2010), which is incorporated by reference in its entirety.
Following an incubation period of specified length, such as 16 hours, the lipoprotein-depleted media was removed and cells rinsed three times with a rinse solution (Dulbecco's phosphate buffered saline (D-PBS, Life Technologies), supplemented with 0.5% bovine serum albumin (BSA, Sigma) and 1 g/L glucose (Sigma)). The fluid was then removed, and cells are released from the plate using TrypLE Express (Life Technologies) per manufacturer's recommended procedures, such as incubation for 5-10 minutes at 37° C. The TyrpLE-Cell suspension was then transferred to 15 mL conical tubes, volume was increased to 2 mL with D-PBS supplemented with 0.5% BSA, and […], and the tubes were centrifuged at 250×gravity for 10 minutes. Following centrifugation, the supernatant was aspirated and the cell pellet was resuspended in 300 μL PBS and counterstained with 4′,6-diamidino-2-phenylindole (DAPI, Cayman Chemical) as a cell viability marker, other cell viability markers such as 7-aminoactinomycin D (7AAD, Life Technologies) have also been described in the art.
as §1, with “analyzed by” for “analyzed”, “both 7AAD” for “both cell viability marker”, “and fluorescent LDL” for “and LDLR”, “of LDL fluorescence,” for “of LDLR,”, “of LDL fluorescence” for “of LDLR”
The LDL-uptake EC50 is provided as follows: +++: <0.5 μM; ++: 0.5-1μM; +: >1 μM.

[3] = Microsomal stability analysis, human; format: in vitro ADME; conditions: pH 7.4; human liver microsomes, 1 μM test compound; read-out: Microsomal Stability t1/2
Protocol: (§2) Microsomal stability was determined as follows:
(§3) The assay was carried out in 96-well microtiter plates at 37° C. Reaction mixtures (25 μL) contained a final concentration of 1 μM test compound, 0.5 mg/mL liver microsomes protein, and 1 mM NADPH and/or 1 mM UDPGA (with alamethicin) in 100 mM potassium phosphate, pH 7.4 buffer with 3 mM MgCl2. At each of the time points (for example, 0, 15, 30, and 60 minutes), 150 μL of quench solution (100% acetonitrile with 0.1% formic acid) with internal standard was transferred to each well. Besides the zero minute controls, mixtures containing the same components except the NADPH can also be prepared as the negative control. Verapamil was included as a positive control to verify assay performance. Plates were sealed, vortexed, and centrifuged at 4° C. for 15 minutes at 4000 rpm. The supernatant was transferred to fresh plates for LC/MS/MS analysis. The extent of metabolism was calculated as the disappearance of the test compound, compared to the 0-min time incubation. Initial rates were calculated for the compound concentration and used to determine t½ values.

PCSK9 [4] = biological target: T1, PCSK9; assay: Biodesy direct binding measurement (second harmonic generation); conditions: Biodesy Delta System
Excerpt: Direct binding can be measured using the commercially available Biodesy Delta System (BDS, http://www.biodesy.com/products/; accessed Aug. 1, 2018). The BDS is a laser-based approach that utilizes second harmonic generation from a labeled protein to detect ligand binding, the method of which is covered and described by U.S. Pat. Nos. 9,395,358 and 8,932,822, and has been commercialized by Biodesy Inc. (South San Francisco, Calif.).

[5] = Microsomal stability analysis, mouse; format: in vitro ADME; conditions: pH 7.4; mouse liver microsomes, 1 μM test compound; read-out: Microsomal Stability t1/2
Protocol: as §2, §3

[6] = Microsomal stability analysis, rat; format: in vitro ADME; conditions: pH 7.4; rat liver microsomes, 1 μM test compound; read-out: Microsomal Stability t1/2
Protocol: as §2, §3

T1 sequence (Q8NBP7 153-692): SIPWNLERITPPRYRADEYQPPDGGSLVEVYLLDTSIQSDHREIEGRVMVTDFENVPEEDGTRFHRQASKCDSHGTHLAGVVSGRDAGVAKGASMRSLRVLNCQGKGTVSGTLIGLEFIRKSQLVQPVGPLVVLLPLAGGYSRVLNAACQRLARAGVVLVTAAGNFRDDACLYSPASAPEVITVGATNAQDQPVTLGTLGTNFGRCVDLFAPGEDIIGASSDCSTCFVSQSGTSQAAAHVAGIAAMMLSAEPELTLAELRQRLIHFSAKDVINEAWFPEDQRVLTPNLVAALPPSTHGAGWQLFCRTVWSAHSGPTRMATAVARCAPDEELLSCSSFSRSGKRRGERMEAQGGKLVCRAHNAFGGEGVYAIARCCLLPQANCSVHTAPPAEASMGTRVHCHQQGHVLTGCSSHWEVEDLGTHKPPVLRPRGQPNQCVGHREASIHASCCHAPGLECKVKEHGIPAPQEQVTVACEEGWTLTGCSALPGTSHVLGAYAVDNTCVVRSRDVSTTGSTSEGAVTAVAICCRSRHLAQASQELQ

Structure (SMILES) | pEC50 (PCSK9 [1]) | pEC50 (PCSK9 [2]) | half-life at 1 μM [3] [min] | ΔSHG (PCSK9 [4]) [%] | half-life at 1 μM [5] [min] | half-life at 1 μM [6] [min]
c1ccc(-c2ccc(C3CCCN(C4CCCC4)C3)cc2)cc1 (stereo not shown) [1,003, 3-([1,1′-biphenyl]-4-yl)-1-cyclopentylpiperidine] | 5.30 to 6.00 | – | – | – | – | –
c1cc(-c2ccc(C3CCCN(CC4CCCC4)C3)cc2)ccn1 (stereo not shown) [1,005, 4-(4-(1-(cyclopentylmethyl)piperidin-3-yl)phenyl) pyridine] | 5.30 to 6.00 | – | – | – | – | –
FC(F)(F)c1cccc(-c2ccc(C3CCCN(CC4CCCC4)C3)cc2)c1 (stereo not shown) [1,013, 1-(cyclopentylmethyl)-3-(3′-(trifluoromethyl)-[1,1′-biphenyl]-4-yl)piperidine] | – | < 6.00 | – | – | – | –
FC(F)(F)c1cc(C2CCCN(CC3CCOC3)C2)ccc1-c1ccccc1 (stereo not shown) [1,027, 1-((tetrahydrofuran-3-yl)methyl)-3-(2-(trifluoromethyl)-[1,1′-biphenyl]-4-yl)piperidine] | – | < 6.00 | – | – | – | –
Fc1cc(F)cc(-c2ccc(C3CCCN(CC4CCCC4)C3)cc2)c1 (stereo not shown) [1,029, 1-(cyclopentylmethyl)-3-(3′,5′-difluoro-[1,1′-biphenyl]-4-yl)piperidine] | – | 6.00 to 6.30 | – | – | – | –
Cc1cc(-c2ccc(Cl)cc2)ccc1C1CCCN(CC2CCCC2)C1 (stereo not shown) [1,039, 3-(4′-chloro-3-methyl-[1,1′-biphenyl]-4-yl)-1-(cyclopentylmethyl) piperidine] | – | 6.00 to 6.30 | – | – | – | –
Cc1cc(C2CCCN(C3CCCC3)C2)ccc1-c1ccc(Cl)cc1 (stereo not shown) [1,040, 3-(4′-chloro-2-methyl-[1,1′-biphenyl]-4-yl)-1-cyclopentylpiperidine] | – | 6.00 to 6.30 | – | – | – | –
Fc1ccc(-c2ccc(C3CCCN(CC4CC4)C3)cc2)cc1 (stereo not shown) [Compound 1,001, 1-(cyclopropylmethyl)-3-(4′-fluoro-[1,1′-biphenyl]-4-yl)piperidine] | 5.30 to 6.00 | – | > 120 | > 10 | 25 | 10
c1ccc(-c2ccc(C3CCCN(CC4CCCC4)C3)cc2)cc1 (stereo not shown) [Compound 1,006, 3-([1,1′-biphenyl]-4-yl)-1-(cyclopentylmethyl)piperidine] | 5.30 to 6.00 | 6.00 to 6.30 | 22 | – | 28 | 13
Fc1ccc(-c2ccc(C3CCCN(CC4CCCC4)C3)cc2)cc1 (stereo not shown) [Compound 1,009, 1-(cyclopentylmethyl)-3-(4′-fluoro-[1,1′-biphenyl]-4-yl)piperidine] | 5.30 to 6.00 | > 6.30 | 86 | – | 67 | 13
Clc1ccc(-c2ccc(C3CCCN(CC4CCCC4)C3)cc2)cc1 (stereo not shown) [Compound 1,010, 3-(4′-chloro-[1,1′-biphenyl]-4-yl)-1-(cyclopentylmethyl)piperidine] | < 5.30 | > 6.30 | > 120 | – | 76 | 15
FC(F)(F)c1ccc(-c2ccc(C3CCCN(CC4CCCC4)C3)cc2)cc1 (stereo not shown) [Compound 1,011, 1-(cyclopentylmethyl)-3-(4′-(trifluoromethyl)-[1,1′-biphenyl]-4-yl)piperidine] | > 6.00 | > 6.30 | > 120 | – | 61 | 17
Fc1ccc(-c2ccc(C3CCCN(Cc4ccccc4)C3)cc2)cc1 (stereo not shown) [Compound 1,035, 1-benzyl-3-(4′-fluoro-[1,1′-biphenyl]-4-yl)piperidine] | < 5.30 | 6.00 to 6.30 | – | – | – | –
